Reference: patent US6376543B1, “Secondary cataract inhibitor” (Kissei Pharmaceuticals Co., Ltd., priority 1996, dated 2002)

System: rat lens epithelial cells
Test: Inhibitory activity on lens epithelial cell proliferation
Type: cell-based
Conditions: rat lens epithelial cells cultured 4 days in DMEM with 10% FBS and various concentrations of Tranilast; viable cells counted by hemocytometer; FIG. 1
Protocol: Inhibitory Activity on Lens Epithelial Cell Proliferation
(1) Culture of Rat Lens Epithelial Cells
Rat crystalline lens was harvested and cut into narrow strips. The strips were adhered to a culture plate and subcultured in Dulbecco's modified Eagle's Medium (DMEM) containing 10% fetal calf serum (FBS) at 37° C. in an atmosphere of 5% CO2 in air for 4 days. On day 4 (at the point that lens epithelial cells had migrated and profilated from crystalline lens tissues), the medium was aspirated and cells were gently washed with phosphate-buffered saline (PBS(−)). Then, the PBS(−) was aspirated, an aliquot of 0.25% trypsin solution containing 0.02% EDTA was added to the culture plate, and the morphology of the cells was observed under phase-contrast microscopy. When cells were going to be round, an equal value of DMEM containing 10% FBS was added to the trypsin solution to stop the action of trypsin. […]
Cell suspension (2×10^4 cells/0.1 ml) and DMEM medium (1.9 ml) containing various concentration of Tranilast and 10% FBS were added to a culture plate (60 mm), and cultured at 37° C. in an atmosphere of 5% CO2 in air. […] After harvesting cells from the plate by pipetting using a pasture pipette, the number of viable cells was counted using a hemocytometer. […]
Mean and standard variation values of each group were calculated. […]

COc1ccc(C=CC(=O)Nc2ccccc2C(=O)O)cc1OC [Tranilast, N-(3,4-dimethoxycinnamoyl)anthranilic acid]
proliferation of lens epithelial cells (number of viable cells): significantly suppressed the proliferation of lens epithelial cells in a concentration-dependent manner
